# Reference: publication PMC9822041 (Molecules, 2022)
# Several values for one entry are separate records, joined by “and”; a condition that tells them apart may be missing. Identical values can stand only once. Like-named read-outs stand apart in the source and are kept apart here.
# Columns and labels:
# hCLK1 = hCLK1 (Homo sapiens, UniProt P49759); assay: CLK1 Human CMGC Kinase Enzymatic Radiometric Assay [Km ATP]; assay type: biochemical
# hDYRK1A = hDYRK1A (Homo sapiens, UniProt Q13627); assay: DYRK1A Human CMGC Kinase Enzymatic Radiometric Assay [Km ATP]; assay type: biochemical
# in vitro = settings: PAMPA, pH 7.4
# [1] = Solubility of 1p in PBS (HPLC); assay type: physicochemical; settings: aqueous buffer, kinetic from dmso stock; PBS pH 7.4, 24 h at 20 °C; read-out: Experimental solubility in PBS
# [2] = In vitro DPPH radical scavenging assay; settings: methanol, 37 °C, 40 min, absorbance at 517 nm
# Method: Finally, the aptitude of 1p to act as a free radical scavenger was assessed using the rapid, inexpensive and widely used DPPH^• (2,2-diphenyl-1-picrylhydrazyl) scavenging method. Dark purple DPPH^• is a stable free radical that can accept an electron or hydrogen to become a stable diamagnetic molecule with the loss of violet color. […] Thus, this novel class of hDYRK1A/hCLK1 inhibitors are all the more interesting that they may also potentially display an additional antioxidant activity to combat oxidative stress in AD.
# Figure 1. In vitro stability of 1p in various non-oxidazing and oxidazing media.
# III – In vitro DPPH radical scavenging assay
# DPPH radical scavenging activity was determined according to the method described by Blois.5 0.5 mL of 0.1 mM DPPH radical solution in methanol was mixed with 1.5 mL of various concentrations in methanol of 1p. The mixture was then thoroughly vortexed for 5s and each antioxidant-DPPH radical reaction mixture is kept in the test tubes in the dark at 37 °C for 40 min (time point by which all reactions should have reached steady state) and transferred to a cuvette for absorbance measurement at 517 nm. For the baseline control, 1.5 mL of methanol was used. […] Percentage of inhibition was calculated using the equation [(A0−A1)/A0] × 100 where A0 was the absorbance of the control and A1 was the absorbance in the presence of the compound. […]
# [3] = In vitro stability/oxidation of 1p to 2p in PBS, NAD+, H2O2 and riboflavin solutions (HPLC-UV); assay type: physicochemical; settings: 25 μM 1p
# CLK1 = system: CLK1; parameters: method as in PMID 20981014, PMID 15010457; settings: cited from earlier work
# DYRK1A = settings: cited from earlier work
# [4] = radiometric assay, Km ATP, read-out: IC50 hCLK1
# [5] = radiometric assay, Km ATP, read-out: IC50 hDYRK1A
# [6] = compared with N-methyl dihydroquinoline 1h
# [7] = quinolinium salt and quinoline intermediates, read-out: IC50 hCLK1 (synthetic intermediates)
# [8] = quinolinium salt and quinoline intermediates, read-out: IC50 hDYRK1A (synthetic intermediates)
# Chain of hCLK1 (P49759 whole entry): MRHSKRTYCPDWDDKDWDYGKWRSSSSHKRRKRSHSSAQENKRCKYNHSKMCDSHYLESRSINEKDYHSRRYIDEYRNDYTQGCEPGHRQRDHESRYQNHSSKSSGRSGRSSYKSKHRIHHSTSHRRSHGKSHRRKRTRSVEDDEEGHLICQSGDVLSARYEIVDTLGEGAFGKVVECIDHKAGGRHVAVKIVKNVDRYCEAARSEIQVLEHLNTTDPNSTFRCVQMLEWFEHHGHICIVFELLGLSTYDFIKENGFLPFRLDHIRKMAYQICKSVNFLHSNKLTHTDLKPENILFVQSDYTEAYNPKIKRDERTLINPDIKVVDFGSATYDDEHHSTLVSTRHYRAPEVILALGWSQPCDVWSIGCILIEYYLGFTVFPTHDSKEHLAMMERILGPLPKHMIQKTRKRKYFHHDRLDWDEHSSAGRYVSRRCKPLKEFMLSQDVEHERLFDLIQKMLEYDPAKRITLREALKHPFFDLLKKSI
Compound,melting point [°C],IC50 (hCLK1; [4]) [µM],IC50 (hDYRK1A; [5]) [µM],other results
CCC[n+]1cc(C(C)=O)cc2ccc(OC)cc21.[Br-],183 to 184,,,
"COc1ccc2c(c1)N(C)C=C(C#N)C2 [Compound 1i, 7-Methoxy-1-methyl-1,4-dihydroquinoline-3-carbonitrile]",127 to 128,> 10,> 10,
"COC(=O)C1=CN(C)c2cc(OC)ccc2C1 [Compound 1j, Methyl 7-methoxy-1-methyl-1,4-dihydroquinoline-3-carboxylate]",95 to 96,1.46 ± 0.253,> 10,
"CCOC(=O)C1=CN(C)c2cc(OC)ccc2C1 [Compound 1k, Ethyl 7-methoxy-1-methyl-1,4-dihydroquinoline-3-carboxylate]",93 to 94,3.16 ± 0.525,> 10,
"COc1ccc2c(c1)N(C)C=C(C(=O)N(C)OC)C2 [Compound 1m, N,7-Dimethoxy-N,1-dimethyl-1,4-dihydroquinoline-3-carboxamide]",,> 10,> 10,
"COc1ccc2c(c1)N(Cc1ccccc1)C=C(C(C)=O)C2 [Compound 1n, 1-(1-Benzyl-7-methoxy-1,4-dihydroquinolin-3-yl)ethanone]",129 to 130,0.595 ± 0.063,3.02 ± 0.15,
"COc1ccc2c(c1)N(CCc1ccccc1)C=C(C(C)=O)C2 [Compound 1o, 1-(7-Methoxy-1-phenethyl-1,4-dihydroquinolin-3-yl)ethanone]",92 to 93,0.122 ± 0.012,1.11 ± 0.203,
"CCCN1C=C(C(C)=O)Cc2ccc(OC)cc21 [Compound 1p, 1-(7-Methoxy-1-propyl-1,4-dihydroquinolin-3-yl)ethanone]",98 to 99,0.047 ± 0.013,0.153 ± 0.044,"fold more potent than 1h toward hCLK1 (hCLK1; [6]): 8 fold; Papp at 4 h, 100 µM (in vitro): 20 ± 0.9 ×10⁻⁶ cm/s; solubility at 24 h [1]: 600 µM and 147 µg/mL; fold more potent than 1h toward hDYRK1A (hDYRK1A; [6]): 2.5 fold; EC50 [2]: 128 µM; % formed 2p after incubation at 37 °C ([3]; 0.1% H2O2 in PBS, after 3.5 h): 13%; % formed 2p after incubation at 37 °C ([3]; 0.1% H2O2 in PBS, after 24 h): 53%; % formed 2p after incubation at 37 °C ([3]; 0.1% riboflavin in PBS, after 3.5 h (in less than 3.5 h)): 100%; % formed 2p after incubation at 37 °C ([3]; 0.2% NAD+ in PBS, after 3.5 h): 5%; % formed 2p after incubation at 37 °C ([3]; 0.2% NAD+ in PBS, after 24 h): 16%; % formed 2p after incubation at 37 °C ([3]; 2% NAD+ in PBS, after 3.5 h): 24%; % formed 2p after incubation at 37 °C ([3]; 2% NAD+ in PBS, after 24 h): 77%; % formed 2p after incubation at 37 °C ([3]; PBS pH 7.4, after 3.5 h): 3%; % formed 2p after incubation at 37 °C ([3]; PBS pH 7.4, after 24 h): 8%"
"COc1ccc2cc(C(C)=O)c[n+](C)c2c1.[I-] [Compound 2h, 3-Acetyl-7-methoxy-1-methylquinolin-1-ium iodide]",223 to 224,,,IC50 (hCLK1; [7]): > 10 µM; IC50 (hDYRK1A; [8]): > 10 µM
"COc1ccc2cc(C(C)=O)cnc2c1 [Compound 6h, 3-Acetyl-7-methoxyquinoline]",129 to 130,,,IC50 (hCLK1; [7]): > 10 µM; IC50 (hDYRK1A; [8]): > 10 µM
"CCN1/C(=C/C(C)=O)Sc2ccc(O)cc21 [INDY, (Z)-1-(3-Ethyl-5-hydroxy-2(3H)-benzothiazolylidene)-2-propanone]",,,,CLK1 % inhibition (CLK1; at 10 μM): 99%
CCN1/C(=C/C(C)=O)Sc2ccc(OC(C)=O)cc21 [ProINDY],,,,DYRK1A % inhibition (DYRK1A; at 10 μM): 26.1%

# Second part, led by results:
melting point [°C],IC50 (hCLK1; [4]) [µM],IC50 (hDYRK1A; [5]) [µM],Compound,other results
,> 10,> 10,"CC(=O)C1=CN(C)c2ccccc2C1 [Compound 1a, 1-(1-Methyl-1,4-dihydroquinolin-3-yl)ethanone]",
141 to 142,> 10,> 10,"CC(=O)C1=CN(C)c2cc(C(F)(F)F)ccc2C1 [Compound 1b, 1-(1-Methyl-7-(trifluoromethyl)-1,4-dihydroquinolin-3-yl)ethanone]",
126 to 127,> 10,> 10,"CC(=O)C1=CN(C)c2cc(N(C)C)ccc2C1 [Compound 1c, 1-(7-(Dimethylamino)-1-methyl-1,4-dihydroquinolin-3-yl)ethanone]",
179 to 180,> 10,> 10,"CC(=O)C1=CN(C)c2cc(Br)ccc2C1 [Compound 1d, 1-(7-Bromo-1-methyl-1,4-dihydroquinolin-3-yl)ethanone]",
124 to 125,> 10,> 10,"CC(=O)C1=CN(C)c2ccc(Cl)cc2C1 [Compound 1e, 1-(6-Chloro-1-methyl-1,4-dihydroquinolin-3-yl)ethanone]",
235 to 236,> 10,> 10,"COc1cc2c(cc1OC)N(C)C=C(C(C)=O)C2 [Compound 1f, 1-(6,7-Dimethoxy-1-methyl-1,4-dihydroquinolin-3-yl)ethanone]",
152 to 153,> 10,> 10,"CC(=O)C1=CN(C)c2cc3c(cc2C1)OCO3 [Compound 1g, 1-(5-Methyl-5,8-dihydro-[1,3]dioxolo[4,5-g]quinolin-7-yl)ethanone]",
99 to 100,0.377 ± 0.158,0.385 ± 0.13,"COc1ccc2c(c1)N(C)C=C(C(C)=O)C2 [Compound 1h, 1-(7-Methoxy-1-methyl-1,4-dihydroquinolin-3-yl)ethanone]",
219 to 220,> 10,> 10,"COc1ccc2c(c1)N(C)C=C(C(=O)N(C)C)C2 [Compound 1l, 7-Methoxy-N,N,1-trimethyl-1,4-dihydroquinoline-3-carboxamide]",
